Patent US5393761A, “3-arylindole compounds” (H. Lundbeck A/S, priority 1990, dated 1995)
Counter-ions that a name gives are not always drawn.

Legend:
[1] = biological target: T1, serotonin S2 (5-HT2) receptors in rat cortex (Rattus norvegicus, UniProt P14842); assay: Inhibition of ^3H-ketanserin binding to serotonin S2 (5-HT2) receptors in rat cortex in vitro; settings: 0.5 nM ^3H-ketanserin, rat cortex membranes, 37° C., 30 min
T1 construct: Serotonin S2 (5-HT2) receptors in membranes from rat; from tissue; host or cells: cerebral cortex membranes of male Wistar rats (printed 'conical tissue', a misprint for cortical)
T1 sequence (P14842 whole entry): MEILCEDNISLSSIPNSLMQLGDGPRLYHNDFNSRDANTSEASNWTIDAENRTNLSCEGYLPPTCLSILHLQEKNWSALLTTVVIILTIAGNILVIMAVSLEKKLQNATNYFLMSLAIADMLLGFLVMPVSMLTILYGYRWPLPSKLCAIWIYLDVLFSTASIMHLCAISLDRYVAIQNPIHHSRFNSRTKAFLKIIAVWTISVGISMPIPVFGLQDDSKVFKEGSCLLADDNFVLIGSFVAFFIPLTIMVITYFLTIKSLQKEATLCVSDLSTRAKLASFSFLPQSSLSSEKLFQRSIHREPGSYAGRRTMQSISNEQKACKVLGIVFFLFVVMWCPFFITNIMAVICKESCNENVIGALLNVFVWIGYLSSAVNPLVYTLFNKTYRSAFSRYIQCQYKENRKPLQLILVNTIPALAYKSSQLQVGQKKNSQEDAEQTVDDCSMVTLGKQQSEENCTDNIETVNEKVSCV
Description: Method in Hyttel, Pharmacology & Toxicology, 61, 126-129, 1987.
Male Wistar (Mol:Wist) rats (125-250 g) are sacrificed and conical tissue is dissected and weighed. The tissue is homogenized (Ultra Turrax, 10 sec.) in 10 ml of ice-cold 50 mM tris buffer pH 7.7 (at 25° C.). The centrifuge glassware used in this step has been rinsed by sonication for 10 min. in ethanol. The homogenate is centrifuged twice at 20,000 g for 10 min. at 4° C. with rehomogenization of the pellet in 10 ml ice-cold buffer. The final pellet is homogenized in 500 vol (w/v)ice-cold buffer.
Incubation tubes kept on ice in triplicate receive 100 μl Of drug solution in water (or water for total binding) and 2000 μl of tissue suspension (final tissue content corresponds to 4 mg original tissue). […] After incubation for 30 min. the samples are filtered under vacuum (0-50 mBar) through Whatman GF/F filters (25 mm). The tubes are rinsed with 5 ml ice-cold buffer which are then poured on the filters. Thereafter, the filters are washed with 2×5 ml of buffer. The filters are placed in counting vials and 4 ml of appropriate scintillation fluid (e.g. Picofluor ™15) are added. After shaking for 1 h and storage 2 hrs in the dark the content of radioactivity is determined by liquid scintillation counting. Specific binding is obtained by subtracting the nonspecific binding in the presence of 1 μM mianserin. For determination of the inhibition of binding five concentrations of drugs covering 3 decades are used.
The IC50 value is determined as the concentration at which the binding is 50% of the total binding in control samples minus the nonspecific binding in the presence of 1 μM mianserin.

[2] = biological target: dopamine D-2 receptors in rat corpus striatum (Rattus norvegicus, UniProt P61169); assay: Inhibition of ^3H-spiperone (spiroperidol) binding to dopamine D-2 receptors in rat corpus striatum in vitro; settings: 0.5 nM ^3H-spiperone, rat striatum membranes, 37° C., 10 min
dopamine D-2 receptors in rat corpus striatum, sequence (P61169 whole entry): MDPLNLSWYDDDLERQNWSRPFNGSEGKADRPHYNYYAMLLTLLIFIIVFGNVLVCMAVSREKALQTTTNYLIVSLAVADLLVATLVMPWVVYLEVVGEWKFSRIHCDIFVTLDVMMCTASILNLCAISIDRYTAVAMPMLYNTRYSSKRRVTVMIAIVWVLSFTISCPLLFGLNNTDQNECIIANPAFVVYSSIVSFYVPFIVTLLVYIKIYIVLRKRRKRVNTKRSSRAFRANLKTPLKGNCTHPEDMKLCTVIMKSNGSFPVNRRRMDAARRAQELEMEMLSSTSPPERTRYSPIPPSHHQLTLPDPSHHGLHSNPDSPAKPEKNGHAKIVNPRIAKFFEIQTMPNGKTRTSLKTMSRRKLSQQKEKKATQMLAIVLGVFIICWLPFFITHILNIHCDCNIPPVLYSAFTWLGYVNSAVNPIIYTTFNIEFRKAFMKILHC
Description: By this method the inhibition by drugs of the binding of ^3 H-spiperone (=^3 H-spiroperidol) (0.5 nM) to dopamine D-2 receptors in membranes from rat corpus striatum is determined in vitro. Method and results in Hyttel & Larsen, J. Neurochem, 44, 1615-1622, 1985).
Male Wistar (Mol:Wistar) rats (125-250 g) are sacrificed and striatal tissue is dissected and weighed. The tissue is homogenized (Ultra Turrax, 10 sec.) in 10 ml of ice-cold 50 mM K-phosphate buffer pH 7.4 (at 25° C.). The homogenate is centrifuged twice at 20,000 g for 10 min. at 4° C. with rehomogenization of the pellet in 10 ml ice-cold buffer. The final pellet is homogenized in 1300 vol (w/v) ice-cold buffer.
Incubation tubes kept on ice in triplicate receive 100 μl of drug solution in water (or water for total binding) and 4000 μl Of tissue suspension (final tissue content corresponds to 3.08 mg original tissue). The binding experimental is initiated by addition of 100 μl of ^3 H-spiperone (final concentration 0.5 nM) and by placing the tubes in a 37° C. water bath. After incubation for 10 min. the samples are filtered under vacuum (0-50 mBar) through Whatman GF/F filters (25 mm). The tubes are rinsed with 5 ml ice-cold buffer which are then poured on the filters. Thereafter, the filters are washed with 2×5 ml of buffer. The filters are placed in counting vials and 4 ml of appropriate scintillation fluid (e.g. Picofluor ™15) are added. After shaking for 1 h and storage 2 hrs in the dark the content of radioactivity is determined by liquid scintillation counting. Specific binding is obtained by subtracting the nonspecific binding in the presence of 10 μM of 6,7-ADTN.
For determination of the inhibition of binding five concentrations of drugs covering 3 decades are used.
The measured cpm are plotted against drug concentration on semilogarithmic paper and the best fitting S-shaped curve is drawn. […] England, specific activity 15-25 Ci/mmol.

Row | SMILES | IC50 [1] [nM] | IC50 [2] [nM]
1 | CN1CCN(CCN2CCC(n3cc(-c4ccc(F)cc4)c4ccc(Cl)cc43)CC2)C1=O [Compound 4a, 6-Chloro-3-(4-fluorophenyl)-1-[1-[2-(3-methylimidazolidin-2-on-1-yl)ethyl]-4-piperidyl)-1H-indole, maleate] | 1.5 | 46
2 | O=C1NCCN1CCN1CCC(n2cc(-c3ccc(F)cc3)c3ccc(Cl)cc32)CC1 [Compound 4b, 6-Chloro-3-(4-fluorophenyl)-1-[1-[2-(imidazolidin-2-on-1-yl)ethyl]-4-piperidyl]-1H-indole] | 1.9 | 37
3 | CC(C)N1CCN(CCN2CCC(n3cc(-c4ccc(F)cc4)c4ccc(Cl)cc43)CC2)C1=O [Compound 4c, 6-Chloro-3-(4-fluorophenyl)-1-[1-[2-[3-(2-propyl)imidazolidin-2-on-1-yl]ethyl]-4-piperidyl]-1H-indole, hydrochloride, hydrate] | 3.7 | 42
4 | O=C1NCCN1CCN1CCC(n2cc(-c3ccc(F)cc3)c3cc(Cl)ccc32)CC1 [Compound 4d, 5-Chloro-3-(4-fluorophenyl)-1-[1-[2-(imidazolidin-2-on-1-yl)ethyl]-4-piperidyl]-1H-indole] | 5.7 | 410
5 | CC(C)N1CCN(CCN2CCC(n3cc(-c4ccc(F)cc4)c4cc(Cl)ccc43)CC2)C1=O [Compound 4e] | 5.4 | 570
6 | CN1CCN(CCN2CCC(n3cc(-c4ccc(F)cc4)c4cc(Cl)ccc43)CC2)C1=O [Compound 4f, 5-Chloro-3-(4-fluorophenyl)-1-[1-[2-(3-methylimidazolidin-2-on-1-yl)ethyl]-piperidyl]-1H-indole] | 1.4 | 550
7 | Cc1ccc2c(c1)c(-c1ccc(F)cc1)cn2C1CCN(CCN2CCNC2=O)CC1 [Compound 4g, 3-(4-Fluorophenyl)-1-[1-[2-(imidazolidin-2-on-1-yl)ethyl]-4-piperidyl]-5-methyl-1H-indole] | 1.6 | 920
8 | Cc1ccc2c(c1)c(-c1ccc(F)cc1)cn2C1CCN(CCN2CCN(C(C)C)C2=O)CC1 [Compound 4h, 3-(4-Fluorophenyl)-5-methyl-1-[1-[2-[3-(2-propyl)imidazolidin-2-on-1-yl]ethyl]-4-piperidyl)-1H-indole, oxalate] | 2.7 | 1100
9 | Cc1ccc2c(c1)c(-c1ccc(F)cc1)cn2C1CCN(CCN2CCN(C)C2=O)CC1 [Compound 4i, 3-(4-Fluorophenyl)-5-methyl-1-[1-[2-(3-methylimidazolidin-2-on-1-yl)ethyl]-4-piperidyl]-1H-indole, fumarate] | 1.4 | 680
10 | Cc1ccc2c(c1)c(-c1ccc(F)cc1)cn2C1CCN(CCN2CCCC2=O)CC1 [Compound 4j, 3-(4-Fluorophenyl)-5-methyl-1-[1-[2-(2-pyrrolidinon-1-yl)ethyl]-4-piperidyl]-1H-indole, oxalate] | 4.5 | 1200
11 | O=C1NCCN1CCN1CCC(n2cc(-c3ccc(F)cc3)c3ccccc32)CC1 [Compound 4k, 3-(4-Fluorophenyl)-1-[1-[2-(imidazolidin-2-on-1-yl)ethyl]-4-piperidyl]-1H-indole] | 3.1 | 120
12 | CC(C)N1CCN(CCN2CCC(n3cc(-c4ccc(F)cc4)c4ccccc43)CC2)C1=O [Compound 4l, 3-(4-Fluorophenyl)-1-[1-[2-[3-(2-propyl)imidazolidin-2-on-1-yl]ethyl]-4-piperidyl]-1H-indole, hydrochloride, hydrate] | 3.3 | 74
13 | O=C1NCCN1CCN1CCC(n2cc(-c3ccc(F)cc3)c3cc(F)ccc32)CC1 [Compound 4m, 5-Fluoro-3-(4-fluorophenyl)-1-[1-[2-(imidazolidin-2-on-1-yl)ethyl]-4-piperidyl]-1H-indole] | 3.2 | 250
14 | CC(C)N1CCN(CCN2CCC(n3cc(-c4ccc(F)cc4)c4cc(F)ccc43)CC2)C1=O [Compound 4n, 5-Fluoro-3-(4-fluorophenyl)-1-[1-[2-[3-(2-propyl)imidazolidin-2-on-1-yl]ethyl]-4-piperidyl]-1H-indole] | 3.1 | 190
15 | O=C1OCCN1CCN1CCC(n2cc(-c3ccc(F)cc3)c3cc(F)ccc32)CC1 [Compound 4o, 5-Fluoro-3-(4-fluorophenyl)-1-[1-[2-(oxazolidin-2-on-3-yl)ethyl]-4-piperidyl]-1H-indole] | 37 | 790
16 | O=C1NCCN1CCN1CCC(n2cc(-c3ccccc3)c3cc(Cl)ccc32)CC1 [Compound 4p, 5-Chloro-3-phenyl-1-[1-[2-(imidazolidin-2-on-1-yl)ethyl]-4-piperidyl]-1H-indole] | 29 | 2800
17 | CC(C)N1CCN(CCN2CCC(n3cc(-c4ccccc4)c4cc(Cl)ccc43)CC2)C1=O [Compound 4q, 5-Chloro-3-phenyl-1-[1-[2-[3-(2-propyl)imidazolidin-2-on-1-yl]ethyl]-4-piperidyl)-1H-indole] | 25 | 3000
18 | O=C1NCCN1CCN1CCC(N2CC(c3ccc(F)cc3)c3cc(F)ccc32)CC1 (centres unmarked) [Compound 4r, 2,3-Dihydro-3-(4-fluorophenyl)-1-[1-[2-(imidazolidin-2-on-1-yl)ethyl]-4-piperidyl]-5-fluoro-1H-indole] | 3.4 | 230
19 | Cc1ccc2c(c1)c(-c1ccc(F)cc1)cn2C1CCN(C(C)C)CC1 [Compound 4s, 3-(4-Fluorophenyl)-5-methyl-1-[1-(2-propyl)-4-piperidyl]-lH-indole, maleate] | 12 | 330
20 | O=C1NCCN1CCN1CCC(n2nc(-c3ccc(F)cc3)c3ccc(Cl)cc32)CC1 [Compound 4t, 6-Chloro-3-(4-fluorophenyl)-1-[1-[2-(imidazolidin-2-on-1-yl)ethyl]-4-piperidyl]-1H-indazole] | 38 | 1900
21 | O=C1NCCN1CCN1CCC(n2nc(-c3ccc(F)cc3)c3cc(C(F)(F)F)ccc32)CC1 [Compound 4u, 3-(4-Fluorophenyl)-1-[1-[2-(imidazolidin-2-on-1-yl)ethyl]-4-piperidyl]-5-trifluoromethyl-1H-indazole] | 220 | 42000
22 | CC(C)N1CCN(CCN2CCC(n3cc(-c4ccc(F)cc4)c4cc(C(F)(F)F)ccc43)CC2)C1=O [Compound 4v, 3-(4-Fluorophenyl)-1-[1-[2-[3-(2-propyl)imidazolidin-2-on-1-yl]ethyl]-4piperidyl]-5-trifluoromethyl-1H-indole] | 11 | > 1000
23 | O=C1NCCN1CCN1CCC(n2c(Br)c(-c3ccc(F)cc3)c3ccccc32)CC1 [Compound 4x, 2-Bromo-3-(4-fluorophenyl)-1-[1-[2-(imidazolidin-2-on-1-yl)ethyl]-4-piperidyl]-1H-indole] | 11 | 650
24 | Cc1ccc2c(c1)c(-c1ccc(F)cc1)c(C)n2C1=CCN(CCN2CCNC2=O)CC1 [Compound 6a, 2,5-Dimethyl-3-(4-fluorophenyl)-1-[1-[2-(imidazolidin-2-on-1-yl)ethyl]-1,2,3,6-tetrahydropyridin-4-yl]-1H-indole] | 2.8 | 6300
25 | Cc1ccc2c(c1)c(-c1ccc(F)cc1)c(C)n2C1=CCN(C)CC1 [Compound 6b, 2,5-Dimethyl-3-(4-fluorophenyl)-1-(1-methyl-1,2,3,6-tetrahydropyridin-4-yl)-1H-indole] | 3.8 | 710
